Experimental data reported in PMC12040169 (PLOS Biology, 2025).

Assay: in vitro
Details: human, hela cells

Row | SMILES | viability at 28.5 h, 10 µM (% viability) [%] | viability at 28.5 h, 10 µM [%]
1 | CC(C)[C@@H](Cn1nc(-c2cccs2)ccc1=O)NC(=O)C1CC1 [CBK284297] | 87.4 | 
2 | Cc1cc(C(=O)N2CC3CCCC(O)(c4cccn4C)C3C2)c(C)[nH]1 (stereo not drawn) [CBK284514] | 93.9 | 
3 | OCc1ccc(-c2cc(NCc3cccs3)n3nccc3n2)cc1 [CBK037046] | 106 | 
4 | Cc1occc1C(=O)Nc1cnn(CCCC(=O)O)c1 [CBK270116] | 89.4 | 
5 | Cc1nc(C)c(C(=O)N2CCC(c3cc4c(C)cccc4cn3)CC2)o1 [CBK285186] | 108 | 
6 | COc1ccc([C@@]23CC[C@@H](CNC(=O)c4ccc(C(F)(F)F)cc4)C[C@@H]2N(C)CC3)cc1OC [CBK042195] | 107 | 
7 | COc1ccc(Br)cc1S(=O)(=O)NCCCN1CCOCC1 [CBK264050] | 103 | 
8 | Cc1ncccc1COC(=O)NCCc1ccccn1 [CBK200137] | 104 | 
9 | CS(=O)(=O)c1cccc(C(=O)Nc2cnc(-c3ccc(F)c(Cl)c3)c(-c3cccnc3)n2)c1 [CBK036779] | 101 | 
10 | CC(CNC1CCCC1)C(O)(c1ccccc1)c1ccccc1 (stereo not drawn) [CBK012237C] | 101 | 
11 | O=C(O)CCC(=O)NN1C(=O)c2ccccc2NC1c1ccc(F)cc1 (stereo not drawn) [CBK286905] | 84 | 
12 | CCCn1cnnc1CN(C)C(=O)NCCc1nc2ccccc2s1 [CBK307663] | 98.2 | 
13 | COc1cc(NC(=O)c2ccc(-c3cc4ccccc4oc3=O)cc2)ccc1NC(=O)C(C)C [CBK268601] | 103 | 
14 | Cc1cccc(C)c1NC(=O)CN1CCC(Oc2cncc(OCC3COc4ccccc4O3)n2)C1 (stereo not drawn) [CBK084373] | 98.5 | 
15 | CC1CNCCN1C(=O)c1cnn(-c2cccc(Cl)c2)c1 (stereo not drawn) [CBK304238] | 94.1 | 
16 | COc1ccc(CNC(=O)c2cc(O)nc3ccccc23)cc1OC [CBK296763] | 90.2 | 
17 | O=C(C1CCC1)N1CCC(c2nc(Cc3cccs3)no2)C1 (stereo not drawn) [CBK283028] | 90.9 | 
18 | CCN(CC)C(=O)c1ccccc1NS(=O)(=O)Cc1ccccc1[N+](=O)[O-] [CBK045428] | 99.9 | 
19 | CCC(NC(=O)C1(Cn2ccnc2)CC1)c1ncccc1C (stereo not drawn) [CBK307046] | 119 | 
20 | CN(C)Cc1cc(-c2ccc(CNC(=O)C3CC3)cc2)nn1C [CBK283470] | 80.5 | 
21 | O=C(NCc1sccc1Cl)Nc1cccc(Cl)c1 [CBK057110] | 92.4 | 
22 | CCc1nsc(N2CCC(Oc3cccnc3N(C)C)C2)n1 (stereo not drawn) [CBK304498] | 110 | 
23 | CNC(=O)Oc1ccc(C2(C)SCCS2)cc1 [CBK023078] |  | 98.9

Row | SMILES | viability at 28.5 h, 10 µM (% viability) [%] | viability at 28.5 h, 10 µM [%]
24 | CCN(NC(=O)c1ccccc1-n1cccc1)c1ccc(C)cc1 [CBK161507] | 110 | 
25 | O=C(OCc1ccccc1)N1CCC(n2ccn(C(=O)CCC3CCCC3)c2=O)CC1 [CBK106670] | 86.7 | 
26 | Cc1nn(CC(=O)NCc2ccc(C(=O)O)cc2)c(C)c1[N+](=O)[O-] [CBK268967] | 118 | 
27 | O=c1c2sccc2[nH]c(=S)n1CCc1ccccc1 [CBK288486] | 118 | 
28 | CCc1nn2c(=O)cc(CN3C(=O)COc4cccnc43)nc2s1 [CBK306599] | 88.9 | 
29 | CCSc1nnc2c(n1)OC(C1CC=C(C)CC1)Nc1ccccc1-2 (stereo not drawn) [CBK262367] | 95.5 | 
30 | O=C(O)C(Cc1ccc(O)cc1)c1ccccc1 (stereo not drawn) [CBK012287] | 84.7 | 
31 | Cc1nnc(CN(C)C2CCN(CCCc3ccccc3)C2)n1C (stereo not drawn) [CBK304000] | 115 | 
32 | Cc1cc(C(=O)O)ccc1-c1ccc(/C=N/n2cnnc2)o1 [CBK264713] | 92.5 | 
33 | CCN(CC)C(=O)CN(CCc1ccc(OC)c(OC)c1)C(=O)NCCc1c[nH]c2ccccc12 [CBK158741] | 91.1 | 
34 | COc1ccccc1CN(C(=O)Nc1ccc(S(C)(=O)=O)cc1)C1CC1 [CBK305787] | 90.9 | 
35 | CS(=O)(=O)N1CC2(CCN(CCCOc3ccccc3)CC2)c2ccccc21 [CBK115457T] | 106 | 
36 | Cc1nc(C)n(C(C)CNC(=O)Cn2ccc3ccc(F)cc32)n1 (stereo not drawn) [CBK282612] | 95.5 | 
37 | O=C(Cn1cnc2ccccc2c1=O)Oc1cccc(NC2=NS(=O)(=O)c3ccccc32)c1 [CBK264975] | 83.6 | 
38 | CC[C@@H]1C(=O)OC[C@@H]1Cc1cncn1C [CBK005338C] | 85.3 | 
39 | CNC(=O)CSc1nc2ccccc2nc1NC(C)C [CBK107171] | 99.7 | 
40 | CCc1cc(O)n2nc(C)c(-c3cccs3)c2n1 [CBK283730] | 99.3 | 
41 | Cc1nnc(NCCN2CCOCC2)nc1O [CBK267912] | 98.5 | 
42 | O=C(Nc1cccc(C=Cc2ccccn2)c1)c1c[nH]nc1-c1ccc(F)cc1 [CBK295335] | 78 | 
43 | Cc1nn(CC(=O)NC(C)C)c(=O)c2cc3ccsc3n12 [CBK284027] | 83.9 | 
44 | CCN(CC)c1c(C)nc2ccc(C(=O)NCCN3CCNC3=O)cn12 [CBK145977] | 97.8 | 
45 | CC(=O)Nc1ccc(S(=O)(=O)Nc2ccc(-c3cn4cccnc4n3)cc2)cc1 [CBK268671] | 105 | 
46 | OCc1ccc(-c2nccnc2N2CCCC2CO)cc1 (stereo not drawn) [CBK089053] | 96.3 | 

Row | SMILES | viability at 28.5 h, 10 µM (% viability) [%] | viability at 28.5 h, 10 µM [%]
47 | CCCNCC(=O)N1CCN(C(=O)c2ccc(C)cc2)CC1 [CBK025546] | 103 | 
48 | COCCn1c(=O)n(Cc2ccc(F)cc2)c2cccnc21 [CBK283886] | 81 | 
49 | CC(=O)Nc1sc2c(c1C(=O)O)CCc1ccccc1-2 [CBK126812] | 96.9 | 
50 | CS(=O)(=O)c1ccc2nc(NC(=O)c3ccco3)sc2c1 [CBK287341] | 95.4 | 
51 | O=C1CCC(=O)N1CCN1CC(O)CC1c1cc(F)ccc1F (stereo not drawn) [CBK306390] | 92.8 | 
52 | O=C1c2ccc(Oc3ccc4c(c3)C(=O)N(c3ccncc3)C4=O)cc2C(=O)N1c1ccncc1 [CBK261399] | 96.5 | 
53 | COc1ccc(CCC(=O)Nc2ncccc2OCCCC#N)cc1 [CBK304957] | 105 | 
54 | CC1CCN(S(=O)(=O)c2cc(C(=O)OCC(=O)c3ccccc3)c(Cl)cc2Cl)CC1 [CBK264470] | 95.6 | 
55 | NC(=O)CN1CC(O)CC1=O (stereo not drawn) [CBK011649] | 86.1 | 
56 | Cc1ccc(NC(=O)OCCN2CCN(C)CC2)c(C)n1 [CBK200135] | 106 | 
57 | COc1cc2ncnc(NCc3ccccc3)c2cc1OC [CBK287984] | 79.7 | 
58 | CC(=O)c1ccc(N2CCN(C(=O)c3cc(-c4ccncc4)nc4ccc(Cl)cc34)CC2)cc1 [CBK267781] | 91.8 | 
59 | CC1=Nc2c(ccc3nsnc23)NC(=O)C1 [CBK019676] | 97.1 | 
60 | CC(=O)Nc1cccc(-n2c(C)nnc2SCC2CCCCC2)c1 [CBK304590] | 86.3 | 
61 | c1cncc(-c2cn3ccnc3c(NC3CCCCC3)n2)c1 [CBK093606] | 84.6 | 
62 | COc1cc(CNCc2cccs2)cc(Cl)c1OCC(N)=O [CBK270237C] | 87.6 | 
63 | O=C(NCc1ccco1)C1CCN(c2nccc(C(F)(F)F)n2)CC1 [CBK028778] | 105 | 
64 | C=CCNc1nc(N)c(/C(N)=N\C#N)s1 [CBK019028] | 99.3 | 
65 | Cc1nc(C2CCN(C(=O)CC3CCCC3)CC2)ncc1C(=O)Nc1ccc(Cl)cc1 [CBK285847] | 97.8 | 
66 | CCC1CCCCN1C(=O)c1ccc(C)c(OC)c1 (stereo not drawn) [CBK081557] | 103 | 
67 | CC(=O)Nc1cccc(-c2ccc(N3CCN(CCN(C)C)CC3)nc2)c1 [CBK036857] | 104 | 
68 | CC(/C(=N/O)c1ccccc1)C(O)c1ccccn1 (stereo not drawn) [CBK022993] | 83.3 | 
69 | Cc1cccc(-c2cc(C(=O)Nc3sc4c(c3C#N)CCCCCC4)c3ccccc3n2)c1 [CBK262632] | 103 | 

Row | SMILES | viability at 28.5 h, 10 µM (% viability) [%] | viability at 28.5 h, 10 µM [%]
70 | Cc1nn(C)c(Cl)c1S(=O)(=O)Nc1ccc2nsnc2c1 [CBK062222] | 69.6 | 
71 | COc1ccc(CCN(Cc2ccc(Cl)c(Cl)c2)C(=O)NCc2ccc(C#N)cc2)cc1OC [CBK158771] | 100 | 
72 | CCc1cccc(CC)c1NC(=O)CN(c1cccc(Br)c1)S(C)(=O)=O [CBK265986] | 84.9 | 
73 | O=C(Cn1cnc2ccccc2c1=O)Nc1cccc(-c2cnc3ccccc3n2)c1 [CBK270020] | 83.7 | 
74 | O=C(NCCNc1ccc([N+](=O)[O-])cc1Cl)c1ccc(F)cc1 [CBK262344] | 86.6 | 
75 | Cc1ccc(C(=O)NCc2cccnc2)c(N2CCOCC2)n1 [CBK076400] | 112 | 
76 | O=C(Cn1c(=O)n(Cc2cccs2)c2ncccc21)N1CCCC1 [CBK283894] | 83.6 | 
77 | CC1(C)CC(=O)C2=C(C1)c1c(ccc3ccccc13)NC2c1ccc(-c2ccc(O)c(C(=O)O)c2)o1 (stereo not drawn) [CBK261823] | 108 | 
78 | Cc1ccc2c(c1)C(NC(=O)C1CC1C)CC1(CCOCC1)O2 (stereo not drawn) [CBK284880] | 91.8 | 
79 | CCn1c(=O)n(CC(=O)N2CCC(C)CC2)c2cccnc21 [CBK283895] | 95.9 | 
80 | Cc1cc(-c2cc(=O)n(Cc3ccccc3C)nc2-c2ccco2)on1 [CBK282878] | 96.7 | 
81 | O=C(O)CCC(=O)NNC(=O)c1cccc(O)c1 [CBK262116] | 97.8 | 
82 | COc1ccnc(N2C[C@@H]3OCC(=O)N(Cc4ccccc4)[C@@H]3C2)n1 [CBK289666] | 91 | 
83 | O=C(NCc1ccco1)c1ccc2c(=O)n(-c3ccccc3)c(=O)[nH]c2c1 [CBK287823] | 83.7 | 
84 | N#Cc1c(N)nc(SCC(=O)c2cc3ccccc3oc2=O)c(C#N)c1-c1ccc(O)cc1 [CBK261269] | 103 | 
85 | O=c1cc(CN2CCC(Oc3nccnc3OCc3ccc(Cl)c(Cl)c3)CC2)[nH]c(=O)[nH]1 [CBK153784] | 96.6 | 
86 | CN1C[C@H](CNC(=O)Nc2ccc(F)c(F)c2)[C@@H](c2ccc(Cl)c(Cl)c2)C1 [CBK076770] | 95.7 | 
87 | O=C(c1ccc(F)cc1)N1C[C@@H]2C[C@H](C1)c1ccc(-c3cncnc3)c(=O)n1C2 [CBK289185] | 92.9 | 
88 | COc1cccc2ncn(CCCn3ccnn3)c(=O)c12 [CBK306650] | 103 | 
89 | COc1ccccc1CN(CC(C)(C)CN)C(=O)NCc1ccc(F)cc1 [CBK002470C] | 87 | 
90 | N#CCCN(Cc1ccco1)C(=O)c1ccc(NC2CC2)nc1 [CBK304922] | 88.2 | 
